US20120142771A1, “BIPHENYLACETAMIDE DERIVATIVE” (Dainippon Sumitomo Pharma Co., Ltd., priority 2008, published 2012)

Experiments:
[1] = system: subcutaneously pentetrazol-injected model (scPTZ); experiment: Subcutaneously pentetrazol-injected model (scPTZ) test; assay type: in vivo, mice; details: Slc: ddY male mice, 3 per group, pentetrazol 85 mg/kg s.c. after 1 hour, observed 30 minutes for clonic convulsion; for responders at 100 mg/kg / responders at 50 mg/kg: Mus musculus, po, 1 h, read-out: scPTZ (positive number/tested number) (converted)
Excerpt: In order to evaluate the antiepileptic activity of each drug, maximum electroshock seizure (MES) model, subcutaneously pentetrazol-injected model (scPTZ), and amygdala kindling model in rats were used because they show a good clinical prediction. […] Test with Subcutaneously Pentetrazol-Injected Model (scPTZ) Similar to Test 1, Test 2 evaluates the anticonvulsant action of medicaments. However, unlike Test 1, animal model used herein represents the clinical phenotypes of generalized absence seizure and myoclonic seizure. Test compounds (50 or 100 mg/kg) were orally administered to Slc: ddY male mice (3 mice in each group, body weight 20-30 g). After an hour, pentetrazol (85 mg/kg) was subcutaneously administered. […] To the control mice, 0.5% tragacanth solution or 0.5% methylcellulose solution was administered.

[2] = system: maximum electroshock seizure (MES) model; experiment: Maximum electroshock seizure (MES) model test; assay type: in vivo, mice; details: Slc: ddY male mice, 3 per group, electrical stimulation 1 hour after administration, inhibition of hind limb extension; for responders at 100 mg/kg / responders at 50 mg/kg: Mus musculus, po, 1 h, read-out: MES (positive number/tested number) (converted)
Excerpt: In order to evaluate the antiepileptic activity of each drug, maximum electroshock seizure (MES) model, subcutaneously pentetrazol-injected model (scPTZ), and amygdala kindling model in rats were used because they show a good clinical prediction.
Test 1: Test with Maximum Electroshock Seizure (MES) Model
Test 1 evaluates the anticonvulsant action of medicaments. Animal model used herein represents the clinical phenotypes of generalized tonic seizure and secondarily generalized tonic-clonic seizure. Test compounds (50 or 100 mg/kg) were orally administered to Slc: ddY male mice (3 mice in each group, body weight 20-30 g). After an hour of administration, their corneas were electrically stimulated (60 Hz, 25 mA, 0.2 second) to induce tonic convulsion (tonic extensor in their hind limbs). […] To the control mice, 0.5% tragacanth solution or 0.5% methylcellulose solution was administered.

NC(=O)C(O)c1ccccc1-c1ccccc1F (single isomer, unassigned) [Example 213, 2-(2′-Fluorobiphenyl-2-yl)-2-hydroxyacetamide]
responders at 100 mg/kg ([1]; 100 mg/kg oral): 33.3%
MES (positive number/tested number) ([2]; 50 mg/kg oral): 0/3
responders at 100 mg/kg ([2]; 100 mg/kg oral): 100%

NC(=O)C(O)c1ccccc1-c1ccccc1F (single isomer, unassigned) [Example 214, 2-(2′-Fluorobiphenyl-2-yl)-2-hydroxyacetamide]
scPTZ (positive number/tested number) ([1]; 100 mg/kg oral): 1/3
MES (positive number/tested number) ([2]; 50 mg/kg oral): 2/3
MES (positive number/tested number) ([2]; 100 mg/kg oral): 3/3

NC(=O)C(O)c1ccccc1-c1cc(F)cc(Cl)c1 (single isomer, unassigned) [Example 217, 2-(3′-Chloro-5′-fluorobiphenyl-2-yl)-2-hydroxyacetamide]
scPTZ (positive number/tested number) ([1]; 50 mg/kg oral): 1/3
scPTZ (positive number/tested number) ([1]; 100 mg/kg oral): 3/3
MES (positive number/tested number) ([2]; 50 mg/kg oral): 2/3

NC(=O)C(O)c1ccccc1-c1cc(F)cc(Cl)c1 (single isomer, unassigned) [Example 218, 2-(3′-Chloro-5′-fluorobiphenyl-2-yl)-2-hydroxyacetamide]
scPTZ (positive number/tested number) ([1]; 50 mg/kg oral): 1/3
scPTZ (positive number/tested number) ([1]; 100 mg/kg oral): 2/3
MES (positive number/tested number) ([2]; 50 mg/kg oral): 1/3
responders at 100 mg/kg ([2]; 100 mg/kg oral): 100%

NC(=O)C(O)c1ccccc1-c1ccccc1Cl (single isomer, unassigned) [Example 220, 2-(2′-chlorobiphenyl-2-yl)-2-hydroxyacetamide]
responders at 50 mg/kg ([1]; 50 mg/kg oral): 33.3%
responders at 100 mg/kg ([1]; 100 mg/kg oral): 100%
responders at 50 mg/kg ([2]; 50 mg/kg oral): 100%
responders at 100 mg/kg ([2]; 100 mg/kg oral): 100%

CNC(=O)Cc1ccccc1-c1ccc(C(F)(F)F)cc1 [Example 2, N-methyl-2-[4′-(trifluoromethyl)biphenyl-2-yl]acetamide]
responders at 100 mg/kg ([1]; 100 mg/kg oral): 0%
responders at 50 mg/kg ([2]; 50 mg/kg oral): 100%
responders at 100 mg/kg ([2]; 100 mg/kg oral): 100%

CN(C)C(=O)Cc1ccccc1-c1ccc(C(F)(F)F)cc1 [Example 3, N,N-dimethyl-2-[4′-(trifluoromethyl)biphenyl-2-yl]acetamide]
responders at 100 mg/kg ([1]; 100 mg/kg oral): 33.3%
responders at 50 mg/kg ([2]; 50 mg/kg oral): 100%
responders at 100 mg/kg ([2]; 100 mg/kg oral): 100%

NC(=O)Cc1ccccc1-c1cccc(C(F)(F)F)c1 [Example 4, 2-[3′-(trifluoromethyl)biphenyl-2-yl]acetamide]
responders at 50 mg/kg ([1]; 50 mg/kg oral): 0%
responders at 100 mg/kg ([1]; 100 mg/kg oral): 66.7%
responders at 50 mg/kg ([2]; 50 mg/kg oral): 0%
responders at 100 mg/kg ([2]; 100 mg/kg oral): 66.7%

CNC(=O)Cc1ccccc1-c1cccc(C(F)(F)F)c1 [Example 5, N-methyl-2-[3′-(trifluoromethyl)biphenyl-2-yl]acetamide]
responders at 50 mg/kg ([1]; 50 mg/kg oral): 33.3%
responders at 100 mg/kg ([1]; 100 mg/kg oral): 66.7%
responders at 50 mg/kg ([2]; 50 mg/kg oral): 0%
responders at 100 mg/kg ([2]; 100 mg/kg oral): 100%

NC(=O)Cc1ccccc1-c1ccccc1C(F)(F)F [Example 6]
responders at 100 mg/kg ([1]; 100 mg/kg oral): 33.3%
responders at 50 mg/kg ([2]; 50 mg/kg oral): 0%
responders at 100 mg/kg ([2]; 100 mg/kg oral): 100%

CNC(=O)Cc1ccccc1-c1ccccc1C(F)(F)F [Example 7, N-methyl-2-[2′-(trifluoromethyl)biphenyl-2-yl]acetamide]
responders at 50 mg/kg ([1]; 50 mg/kg oral): 0%
responders at 100 mg/kg ([1]; 100 mg/kg oral): 66.7%
responders at 50 mg/kg ([2]; 50 mg/kg oral): 66.7%
responders at 100 mg/kg ([2]; 100 mg/kg oral): 100%

CCNC(=O)Cc1ccccc1-c1ccccc1C(F)(F)F [Example 8, N-ethyl-2-[2′-(trilluoromethyl)biphenyl-2-yl]acetamide]
responders at 50 mg/kg ([1]; 50 mg/kg oral): 0%
responders at 100 mg/kg ([1]; 100 mg/kg oral): 66.7%
responders at 50 mg/kg ([2]; 50 mg/kg oral): 0%
responders at 100 mg/kg ([2]; 100 mg/kg oral): 100%

CN(C)C(=O)Cc1ccccc1-c1ccccc1C(F)(F)F [Example 9]
responders at 50 mg/kg ([1]; 50 mg/kg oral): 0%
responders at 100 mg/kg ([1]; 100 mg/kg oral): 66.7%
responders at 100 mg/kg ([2]; 100 mg/kg oral): 33.3%

NC(=O)Cc1ccccc1-c1ccc(Cl)cc1 [Example 10]
responders at 100 mg/kg ([1]; 100 mg/kg oral): 33.3%
responders at 50 mg/kg ([2]; 50 mg/kg oral): 33.3%
responders at 100 mg/kg ([2]; 100 mg/kg oral): 100%

CNC(=O)Cc1ccccc1-c1ccc(Cl)cc1 [Example 11]
responders at 100 mg/kg ([1]; 100 mg/kg oral): 33.3%
responders at 50 mg/kg ([2]; 50 mg/kg oral): 0%
responders at 100 mg/kg ([2]; 100 mg/kg oral): 100%

CN(C)C(=O)Cc1ccccc1-c1ccc(Cl)cc1 [Example 12]
responders at 100 mg/kg ([1]; 100 mg/kg oral): 33.3%
responders at 50 mg/kg ([2]; 50 mg/kg oral): 0%
responders at 100 mg/kg ([2]; 100 mg/kg oral): 100%

CNC(=O)Cc1ccccc1-c1cccc(Cl)c1 [Example 14]
responders at 100 mg/kg ([1]; 100 mg/kg oral): 0%
responders at 50 mg/kg ([2]; 50 mg/kg oral): 0%
responders at 100 mg/kg ([2]; 100 mg/kg oral): 100%

CN(C)C(=O)Cc1ccccc1-c1cccc(Cl)c1 [Example 15]
responders at 100 mg/kg ([1]; 100 mg/kg oral): 0%
responders at 50 mg/kg ([2]; 50 mg/kg oral): 0%
responders at 100 mg/kg ([2]; 100 mg/kg oral): 66.7%
